# Test results from patent US20260191933A1, “PHARMACEUTICAL COMBINATIONS AND USES THEREOF” (The University of Melbourne, priority 2022, published 2026).
# Experiments:
# [1] = tested on: HFHS plus low dose STZ mice; assay: I.C.V. fluorosamine in late-stage type-2 diabetes model (HFHS plus low dose streptozotocin); type: in vivo, C57BL/6J mice; conditions: I.C.V. for 14 days
# Procedure: Mice were maintained on a 12 h light-dark cycle in a temperature-controlled high-barrier facility with free access to food and water per NHMRC Australian Code of Practice for the Care and Use of Animals. C57BL/6J and Balb/C mice were sourced from the Animal Resources Centre, Australian, whereas Agrp-IRES-Cre (Strain #:012899), db/db (strain #: 000697), Npy-GFP (Strain #:006417), Pomc-GFP (Strain #:009593), LSL-Cas9 (Strain #:028551), NZO (Strain #:002105) mice were sourced from Jackson Laboratories, USA. […]
# Metabolic measurements were undertaken in the Melbourne Mouse Metabolic Phenotyping Platform (The University of Melbourne, Australia). […] The areas under glucose excursion curves were determined and expressed as mmol/l×min. Fasted (12 h fast) plasma insulin or glucose levels were determined using a Rat/Mouse Insulin ELISA (EZRMI-13K, Merck Millipore, CA) or an Accu-Check glucometer respectively. The HOMA-IR was calculated using the equation [(glucose×insulin)/405]. Adiposity was measured using TD-NMR minispec (Bruker Optics Inc., Billerica, MA). […]
# diet-induced obese mice = assay: I.C.V. PZ6005 and/or S.C. liraglutide, 28 days: body weight, adiposity, food intake, energy expenditure; type: in vivo, C57BL/6j mice
# Procedure: Metabolic measurements were undertaken in the Melbourne Mouse Metabolic Phenotyping Platform (The University of Melbourne, Australia). Glucose tolerance tests were performed on 6 h fasted conscious mice respectively by injecting D-glucose (2 mg/g of lean body mass and 1 mg/g lean mass for db/db and HFHS+STZ mice) into the peritoneal cavity and measuring glucose in tail blood immediately before and at 15, 30, 45, 60, 90 and 120 min after injection using an Accu-Check glucometer (Roche, Germany). The areas under glucose excursion curves were determined and expressed as mmol/l×min. Fasted (12 h fast) plasma insulin or glucose levels were determined using a Rat/Mouse Insulin ELISA (EZRMI-13K, Merck Millipore, CA) or an Accu-Check glucometer respectively. The HOMA-IR was calculated using the equation [(glucose×insulin)/405]. Adiposity was measured using TD-NMR minispec (Bruker Optics Inc., Billerica, MA).
# Mice were acclimated for 24 h and then monitored for 48 h in an environmentally controlled Promethion Metabolic Screening System (Sable Systems International, NV) fitted with indirect open circuit calorimetry, food consumption and activity monitors to measure activity, caloric intake and energy expenditure. Respiratory quotients were calculated as the ratio of CO2 production over O2 consumption respiratory exchange ratio and energy expenditure was calculated using the Weir equation (Kcal h−1=60×(0.003941×VO2+0.001106×VCO2). To account for difference in body mass/composition energy expenditure was analysed and adjusted using ANCOVA using scripts available at the National Mouse Metabolic Phenotyping Centers (MMPC, Nashville, TN, USA) Energy Expenditure Analysis Page (https://www.mmpc.org/shared/regression.aspx).
# [2] = tested on: 12-week HFHS fed obese mice; assay: Example 21: glycaemic control in treatment and off-treatment phase (GTT, ITT, fasting glucose); type: in vivo, C57BL/6J male mice; conditions: treatment phase
# Text: Under 2-5% (v/v) isoflurane in 1 L/min oxygen, 12-week-HFHS-diet-fed and aged-matched chow-fed C57BL/6J male mice were implanted stereotaxically with guide cannulas in the right lateral ventricle (measurement of the coordinates were described as Chapter 2; Anterior/Posterior: −1.00 mm, Medial/Lateral: +0.20 mm). Guide cannulas were made by polishing the shaft of hypodermic needles (19 Gauge, Livingstone, Australia) to 1.00 mm long. The tip of the guide cannula was positioned 1.00 mm above the target region (1.00 mm ventral to the surface of the mouse skull). The mice were allowed 2-3 days for recovery before further experimental manipulations.
# Awake 12-week-HFHS-diet-fed and aged-matched chow-fed C57BL/6J male mice were restrained by scruffing and inverted in the head-down position. […]
# Glucose tolerance test was conducted on 6-hrs fasted conscious mice by injecting D-glucose (2 mg/g of lean body mass) into the peritoneal cavity and measuring blood glucose levels by taking tail blood immediately at 0, 15, 30, 60, 90 and 120 mins after injection using an Accu-Check glucometer (Roche, Germany). The area under the glucose excursion curve was determined and represented as mmol/L×min. Fasted (24 hr fast) glucose level was measured using an Accu-Check glucometer. […]
# [3] = tested on: GLP-1 receptor signalling (pERK) in the ARC; assay: I.C.V. PZ6005 and/or S.C. liraglutide: ARC pERK +ve. cells after liraglutide; type: in vivo, C57BL/6j mice; conditions: after 28-day treatment; compared to controls and liraglutide alone
structure (smiles),measurement,setting,value
"CC(=O)NC1C(OC(C)=O)OC(COC(C)=O)[C@@H](F)C1OC(C)=O (stereo partly shown) [PZ6005, per-O-acetylated-4-F-N-acetylglucosamine]","remission of metabolic disease (daily blood glucose, glucose tolerance)",[1],promote the remission of metabolic disease
same,"mass of ingWAT, epiWAT and the liver","diet-induced obese mice; 28-day treatment, compared with control littermates",lower mass
same,difference in fat mass between the mid- and post-treatment,diet-induced obese mice; 14 days after last PZ6005 dose,no significant difference
same,energy expenditure and oxygen consumption,"diet-induced obese mice; Day 8-Day 11 of the treatment, day and night",consumed more energy
same,mean percentage change in weight,"diet-induced obese mice; day 28, PZ6005 100 μg/animal I.C.V. every other day first 14 days, liraglutide 200 μg/kg/day S.C. 28 days",−13.02±1.15%
same,glucose tolerance / glycaemic regulation,[2],improved glucose tolerance
same,ARC pERK +ve. cells,[3],markedly increased
